According to paper PMC2628629 (Bioorganic & medicinal chemistry letters, 2008):

Target: E. coli MenE (Escherichia coli, UniProt P37353)
Assay: MenE inhibition, coupled assay with MenE and MenB
Format: biochemical
Conditions: for Inhibition of MenE, result in words: inhibitor at up to 200 μM

E. coli MenE, sequence (P37353 whole entry): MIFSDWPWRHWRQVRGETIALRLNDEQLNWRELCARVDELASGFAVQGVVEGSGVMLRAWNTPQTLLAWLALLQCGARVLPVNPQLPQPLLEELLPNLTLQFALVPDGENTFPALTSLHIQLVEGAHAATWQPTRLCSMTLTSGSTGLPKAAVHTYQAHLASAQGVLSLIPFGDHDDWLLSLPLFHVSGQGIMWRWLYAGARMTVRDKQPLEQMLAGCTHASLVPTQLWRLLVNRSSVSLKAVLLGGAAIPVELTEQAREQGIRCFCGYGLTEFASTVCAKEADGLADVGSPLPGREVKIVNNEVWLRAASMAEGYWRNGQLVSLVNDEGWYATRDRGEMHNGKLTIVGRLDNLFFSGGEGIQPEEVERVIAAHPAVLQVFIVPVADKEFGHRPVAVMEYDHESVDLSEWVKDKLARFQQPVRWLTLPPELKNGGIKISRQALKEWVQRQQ

| SMILES | Inhibition of MenE, result in words | Kinetic analysis of MenE inhibition (mode of binding) |
| --- | --- | --- |
| COC(=O)c1ccccc1C(=O)CCC(=O)NS(=O)(=O)OC[C@H]1O[C@@H](n2cnc3c(N)ncnc32)[C@H](O)[C@@H]1O [Compound 1, MeOSB-AMS] | effective inhibitors |  |
| COC(=O)c1ccccc1C(=O)CCC(=O)NS(=O)(=O)NC[C@H]1O[C@@H](n2cnc3c(N)ncnc32)[C@H](O)[C@@H]1O [Compound 2, MeOSB-AMSN] | effective inhibitors |  |
| COC(=O)c1ccccc1C(=O)CC/C=C/S(=O)(=O)NC[C@H]1O[C@@H](n2cnc3c(N)ncnc32)[C@H](O)[C@@H]1O [Compound 3, MeOSB-AVSN] |  | slow-binding inhibitor |
